Measured values from PubChem BioAssay (NCI).
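Step 1: Grow cells in 96-well plates. Step 2: Expose to compound for 48 hours at 5 concentrations. Step 3: Interpolate endpoints linearly; if unreached, use highest concentration. GI50 = concentration required for 50% inhibition of growth. TGI denotes the concentration required for complete inhibition of growth.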

Legend:
Assay in all cases: DTP human tumour cell line panel, 48 h
COLO 205 colon = tested on: COLO 205 colon
HT29 colon = tested on: HT29 colon
LOX IMVI melanoma = tested on: LOX IMVI melanoma
MDA-MB-435 = tested on: MDA-MB-435
NCI-H226 lung = tested on: NCI-H226 lung
NCI-H460 lung = tested on: NCI-H460 lung
OVCAR-5 ovarian = tested on: OVCAR-5 ovarian
RXF 393 renal = tested on: RXF 393 renal
SK-MEL-28 melanoma = tested on: SK-MEL-28 melanoma
SNB-75 CNS = tested on: SNB-75 CNS

Row | Compound | TGI (COLO 205 colon) [µM] | TGI (HT29 colon) [µM] | TGI (LOX IMVI melanoma) [µM] | TGI (MDA-MB-435) [µM] | TGI (NCI-H226 lung) [µM] | TGI (NCI-H460 lung) [µM] | TGI (OVCAR-5 ovarian) [µM] | TGI (RXF 393 renal) [µM] | TGI (SK-MEL-28 melanoma) [µM] | TGI (SNB-75 CNS) [µM] | GI50 (COLO 205 colon) [µM] | GI50 (HT29 colon) [µM] | GI50 (LOX IMVI melanoma) [µM] | GI50 (MDA-MB-435) [µM] | GI50 (NCI-H226 lung) [µM] | GI50 (NCI-H460 lung) [µM] | GI50 (OVCAR-5 ovarian) [µM] | GI50 (RXF 393 renal) [µM] | GI50 (SK-MEL-28 melanoma) [µM] | GI50 (SNB-75 CNS) [µM]
1 | CC(=O)Nc1ccc(S(=O)(=O)N=S(C)C)cc1 | > 100 | > 100 | > 100 | > 100 | > 100 | > 100 | > 100 | > 100 | > 100 | > 100 |  |  |  |  |  |  |  |  |  | 
2 | O=C(Nc1cc(F)c(F)cc1C(=O)O)c1ccc(-n2ccnc2)nn1 | > 100 | > 100 | > 100 | > 100 | > 100 | > 100 | > 100 | > 100 | > 100 | > 100 | > 100 | > 100 | > 100 | > 100 | > 100 | > 100 | > 100 | 19.6 | > 100 | > 100
3 | Cc1nc2sc3c(N)ncnc3c2c(C)c1C | > 25 | > 25 | > 25 | > 25 | > 25 | > 25 | > 25 | > 25 | > 25 | > 25 | > 25 | > 25 | > 25 | > 25 | > 25 | > 25 | > 25 | > 25 | > 25 | > 25
4 | COc1ccc(-c2cc(-c3ccc(Cl)cc3)nc(NCCCCNc3ccnc4cc(Cl)ccc34)n2)cc1 | 4.53 | 3.57 | 3.18 | 3.27 | > 100 | 4.35 | 29.5 | 5.2 | 3.32 | 22.1 | 1.86 | 1.68 | 1.7 | 1.79 | 31.8 | 2.04 | 15.4 | 1.65 | 1.76 | 10
5 | CCCc1nc(Cl)c(Cl)c(Cl)n1 | > 100 | > 100 | 17.7 | > 62 | > 94.6 | > 100 | 97.9 | 56.4 | > 100 | > 100 |  |  |  |  |  |  |  |  |  | 
6 | COc1ccc2c(O)c(/C=C3\N=Nc4ncccc43)oc2c1C[C@@H]1CCNC[C@H]1F | 1.43 | 2.09 | 0.972 | 2.79 | 3.55 | 2.05 | 8.29 | 0.984 | 7.25 | 1.94 | 0.323 | 0.307 | 0.318 | 1.21 | 0.256 | 0.617 | 1.02 | 0.253 | 2.22 | 0.378
7 | OC1CCCC2CCC[N-]C12.OC1CCCC2CCC[N-]C12.[O]=[V][OH] (stereo not drawn) | 81.8 | > 100 | 33.6 | > 100 | > 100 | > 100 | > 100 | 35.4 | > 100 | > 100 | 21.1 | 4.72 | 6.09 | 7.44 | 42 | 5.49 | 9.99 | 15.6 | 21.2 | 32.8
8 | CCN(CC)CCN1c2nc3ccccc3cc2Sc2cc3ccccc3nc21 | 2.85 | 3.06 | 3.03 | 3.97 | 14.2 | 2.95 | 4.55 | 18 | 3.49 | 6.22 | 1.35 | 1.21 | 1.57 | 1.8 | 3.31 | 1.52 | 1.65 | 3.78 | 1.8 | 1.32
9 | O=C(Nc1cc(Cl)ccc1O)c1cccc(Nc2ccnc(C(F)(F)F)c2)c1 | 15 | 31.8 | 24.4 | 12.2 | 39.5 | 13.2 | 38.5 | 29.1 | 19.1 | 22.2 | 3.18 | 11.1 | 2.65 | 2.83 | 4.84 | 1.95 | 13.9 | 11 | 6.15 | 6.27
10 | Fc1ccc(-c2nn3ccccc3c2-c2ccncc2)cc1 | > 25 | > 25 | > 25 | > 25 | > 25 | > 25 | > 25 | > 25 | > 25 | > 25 | > 25 | 14 | > 25 | > 25 | > 25 | > 25 | > 25 | > 25 | > 25 | > 19.7
11 | CCN(CC)c1ccc(-c2cc(-c3cc(OC)c(OC)c(OC)c3)nc(N3CCC(O)CC3)c2C#N)cc1 | 2.11 | 1.28 | 0.172 | 1.12 | 5.77 | 1.62 | > 21.8 | 2.93 | 3.76 | 3.04 | 0.488 | 0.277 | 0.0419 | 0.272 | 0.756 | 0.245 | 0.469 | 0.193 | 0.879 | 0.321
12 | Cn1c(=O)c(Oc2ccc(F)cc2F)cc2cnc(N[C@@H]3CCOC3)nc21 | > 25 | > 25 | > 25 | > 25 | > 25 | > 25 | > 25 | > 25 | > 25 | > 25 | > 25 | > 25 | > 25 | > 25 | > 25 | > 25 | > 25 | > 25 | > 25 | > 25
13 | COc1ccc(S(=O)(=O)Nc2c(/C=C\c3cc(OC)c(OC)c(OC)c3)ccc(OC)c2O)cc1 | 1.91 | 10.8 | 49.1 | 0.0484 | > 100 | 13.7 | > 100 | 21.7 |  | 88.8 | 0.406 | 1.4 | 0.0455 | 0.019 | 41.3 | 0.0368 | 1.02 | 0.0318 |  | 0.0255
